# Like-named read-outs stand apart in the source and are kept apart here.
# Target: human Nav 1.8 (Homo sapiens, UniProt Q9Y5Y9)
# Assay: E-VIPR assay detecting and measuring Nav inhibition (HEK cells expressing truncated human Nav 1.8)
# Format: cell-based
# Method in brief: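 HEK cells expressing truncated human Nav1.8, transduced with KIR2.1 BacMam, were loaded with CC2-DMPE/DiSBAC6(3) FRET dyes and tested under electrical stimulation (E-VIPR). Compounds were run as 11-point 3-fold dilutions, top 300 nM final, 0.625% DMSO, with or without 25% human serum.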
# [1] = in the Presence of Human Serum in the E-VIPR Assay, read-out: IC50
# [2] = in the Absence of Human Serum in the E-VIPR Assay, read-out: IC50
# [3] = in the Presence of Human Serum in the E-VIPR Assay
# Sequence of human Nav 1.8 (Q9Y5Y9 whole entry, looked up, the tested form may be a part): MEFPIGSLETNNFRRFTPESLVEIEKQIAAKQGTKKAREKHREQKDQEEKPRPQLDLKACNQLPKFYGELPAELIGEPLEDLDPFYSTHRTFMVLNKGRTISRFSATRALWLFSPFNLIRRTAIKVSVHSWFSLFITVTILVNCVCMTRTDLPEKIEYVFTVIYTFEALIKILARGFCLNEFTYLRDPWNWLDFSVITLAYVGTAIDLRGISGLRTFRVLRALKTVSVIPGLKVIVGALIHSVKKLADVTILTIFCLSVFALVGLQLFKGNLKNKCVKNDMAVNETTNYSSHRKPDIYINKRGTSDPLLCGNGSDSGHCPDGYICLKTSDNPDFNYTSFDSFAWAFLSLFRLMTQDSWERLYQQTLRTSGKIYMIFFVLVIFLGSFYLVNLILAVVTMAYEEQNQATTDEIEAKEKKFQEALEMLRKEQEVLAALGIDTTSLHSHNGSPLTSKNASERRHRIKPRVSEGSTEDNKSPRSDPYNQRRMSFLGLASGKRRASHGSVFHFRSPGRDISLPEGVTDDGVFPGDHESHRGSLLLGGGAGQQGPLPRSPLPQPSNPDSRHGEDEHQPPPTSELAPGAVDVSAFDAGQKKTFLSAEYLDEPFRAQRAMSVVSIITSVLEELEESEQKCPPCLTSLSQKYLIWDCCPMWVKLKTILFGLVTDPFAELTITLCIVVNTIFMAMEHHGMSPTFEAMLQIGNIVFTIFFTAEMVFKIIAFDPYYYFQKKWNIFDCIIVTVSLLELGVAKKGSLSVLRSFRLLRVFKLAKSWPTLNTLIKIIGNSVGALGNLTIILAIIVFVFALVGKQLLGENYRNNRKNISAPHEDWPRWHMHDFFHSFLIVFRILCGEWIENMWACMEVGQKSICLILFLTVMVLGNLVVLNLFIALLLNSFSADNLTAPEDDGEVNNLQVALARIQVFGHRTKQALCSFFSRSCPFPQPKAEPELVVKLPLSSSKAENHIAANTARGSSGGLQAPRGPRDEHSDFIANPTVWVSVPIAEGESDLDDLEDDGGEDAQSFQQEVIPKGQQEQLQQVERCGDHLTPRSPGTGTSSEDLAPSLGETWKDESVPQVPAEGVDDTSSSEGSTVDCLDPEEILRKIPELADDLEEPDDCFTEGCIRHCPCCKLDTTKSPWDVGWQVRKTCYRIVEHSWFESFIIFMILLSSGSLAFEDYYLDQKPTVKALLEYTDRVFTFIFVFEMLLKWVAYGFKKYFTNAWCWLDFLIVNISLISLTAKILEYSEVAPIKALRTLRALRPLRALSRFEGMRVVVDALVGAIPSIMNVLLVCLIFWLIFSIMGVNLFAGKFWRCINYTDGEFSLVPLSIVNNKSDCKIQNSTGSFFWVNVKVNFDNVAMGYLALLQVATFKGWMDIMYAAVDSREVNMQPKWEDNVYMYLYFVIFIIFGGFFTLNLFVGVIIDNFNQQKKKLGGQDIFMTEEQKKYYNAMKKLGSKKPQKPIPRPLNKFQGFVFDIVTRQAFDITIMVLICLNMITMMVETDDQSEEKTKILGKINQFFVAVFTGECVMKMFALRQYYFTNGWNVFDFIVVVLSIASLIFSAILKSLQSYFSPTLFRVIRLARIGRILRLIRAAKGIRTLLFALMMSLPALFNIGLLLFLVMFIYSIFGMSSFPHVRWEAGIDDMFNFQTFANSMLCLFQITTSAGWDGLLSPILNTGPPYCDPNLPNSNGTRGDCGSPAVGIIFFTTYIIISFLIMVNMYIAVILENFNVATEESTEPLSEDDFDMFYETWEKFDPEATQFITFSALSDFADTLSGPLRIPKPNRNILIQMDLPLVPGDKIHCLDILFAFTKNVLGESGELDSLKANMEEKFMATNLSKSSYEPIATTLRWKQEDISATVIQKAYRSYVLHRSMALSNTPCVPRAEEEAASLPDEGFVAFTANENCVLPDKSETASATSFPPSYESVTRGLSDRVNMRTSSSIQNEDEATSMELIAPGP
smiles,measurement,setting,value
"CC[C@]1(C(F)(F)F)C[C@@H](c2ccc(F)c(F)c2OC)[C@H](C(=O)Nc2ccnc(C(N)=O)c2)O1 (stereo in doubt) [Compound 64, rel-(2R,3S,5R)-4-[[3-(3,4-difluoro-2-methoxy-phenyl)-5-ethyl-5-(trifluoromethyl)tetrahydrofuran-2-carbonyl]amino]pyridine-2-carboxamide]",IC50,[1],10 to 100 nM
"COc1cc(F)ccc1[C@H]1C[C@@](C)(C(F)(F)F)O[C@@H]1C(=O)Nc1ccnc(C(N)=O)c1 (stereo in doubt) [Compound 67, rel-(2S,3R,5S)-4-[[3-(4-fluoro-2-methoxy-phenyl)-5-methyl-5-(trifluoromethyl)tetrahydrofuran-2-carbonyl]amino]pyridine-2-carboxamide]",IC50,[1],> 1000 nM
"COc1cc(F)ccc1[C@@H]1C[C@](C)(C(F)(F)F)O[C@H]1C(=O)Nc1ccnc(C(N)=O)c1 (stereo in doubt) [Compound 68, rel-(2R,3S,5R)-4-[[3-(4-fluoro-2-methoxy-phenyl)-5-methyl-5-(trifluoromethyl)tetrahydrofuran-2-carbonyl]amino]pyridine-2-carboxamide]",IC50,[1],10 to 100 nM
"COc1c([C@@H]2[C@@H](C)[C@@](C)(C(F)F)O[C@H]2C(=O)Nc2ccnc(C(N)=O)c2)ccc(F)c1F (stereo in doubt) [Compound 96, rel-(2R,3S,4R,5S)-4-[[3-(3,4-difluoro-2-methoxy-phenyl)-5-(difluoromethyl)-4,5-dimethyl-tetrahydrofuran-2-carbonyl]amino]pyridine-2-carboxamide]",IC50,[1],> 1000 nM
"COc1c([C@@H]2[C@@H](C(=O)Nc3ccnc(C(N)=O)c3)O[C@@](C)(C(F)F)[C@H]2C)ccc(F)c1F (stereo in doubt) [Compound 97, rel-(2S,3R,4S,5R)-4-[[3-(3,4-difluoro-2-methoxy-phenyl)-5-(difluoromethyl)-4,5-dimethyl-tetrahydrofuran-2-carbonyl]amino]pyridine-2-carboxamide]",IC50,[1],> 1000 nM
"COc1c([C@@H]2[C@@H](C(=O)Nc3ccnc(C(N)=O)c3)O[C@](C)(C(F)F)[C@@H]2C)ccc(F)c1F (stereo in doubt) [Compound 98, rel-(2S,3R,4R,5S)-4-[[3-(3,4-difluoro-2-methoxy-phenyl)-5-(difluoromethyl)-4,5-dimethyl-tetrahydrofuran-2-carbonyl]amino]pyridine-2-carboxamide]",IC50,[1],> 1000 nM
"COc1c([C@H]2[C@H](C(=O)Nc3ccnc(C(N)=O)c3)O[C@@](C)(C(F)F)[C@H]2C)ccc(F)c1F (stereo in doubt) [Compound 99, rel-(2R,3S,4S,5R)-4-[[3-(3,4-difluoro-2-methoxy-phenyl)-5-(difluoromethyl)-4,5-dimethyl-tetrahydrofuran-2-carbonyl]amino]pyridine-2-carboxamide]",IC50,[1],> 1000 nM
"COc1c([C@H]2[C@@H](C)[C@@H](C)O[C@@H]2C(=O)Nc2ccnc(C(N)=O)c2)ccc(F)c1F (stereo in doubt) [Compound 107, rel-(2S,3R,4R,5R)-4-[[3-(3,4-difluoro-2-methoxy-phenyl)-4,5-dimethyl-tetrahydrofuran-2-carbonyl]amino]pyridine-2-carboxamide]",IC50,[1],> 1000 nM
"COc1c([C@@H]2[C@H](C)[C@H](C)O[C@H]2C(=O)Nc2ccnc(C(N)=O)c2)ccc(F)c1F (stereo in doubt) [Compound 108, rel-(2R,3S,4S,5S)-4-[[3-(3,4-difluoro-2-methoxy-phenyl)-4,5-dimethyl-tetrahydrofuran-2-carbonyl]amino]pyridine-2-carboxamide]",IC50,[1],100 to 1000 nM
"COc1c([C@H]2C[C@@H](C(F)(F)F)O[C@@H]2C(=O)Nc2ccnc(C(N)=O)c2)ccc(F)c1F (stereo in doubt) [Compound 109, rel-(2S,3R,5S)-4-[[3-(3,4-difluoro-2-methoxy-phenyl)-5-(trifluoromethyl)tetrahydrofuran-2-carbonyl]amino]pyridine-2-carboxamide]",IC50,[1],> 1000 nM
"COc1c([C@@H]2C[C@H](C(F)(F)F)O[C@H]2C(=O)Nc2ccnc(C(N)=O)c2)ccc(F)c1F (stereo in doubt) [Compound 110, rel-(2R,3S,5R)-4-[[3-(3,4-difluoro-2-methoxy-phenyl)-5-(trifluoromethyl)tetrahydrofuran-2-carbonyl]amino]pyridine-2-carboxamide]",IC50,[1],100 to 1000 nM
"Cc1c([C@@H]2[C@@H](C(=O)Nc3ccnc(C(N)=O)c3)O[C@](C)(C(F)(F)F)[C@@H]2C)ccc(F)c1F (stereo in doubt) [Compound 131, rel-(2S,3R,4R,5S)-4-[[3-(3,4-difluoro-2-methyl-phenyl)-4,5-dimethyl-5-(trifluoromethyl)tetrahydrofuran-2-carbonyl]amino]pyridine-2-carboxamide]",IC50,[2],> 1000 nM
"Cc1c([C@H]2[C@H](C(=O)Nc3ccnc(C(N)=O)c3)O[C@@](C)(C(F)(F)F)[C@H]2C)ccc(F)c1F (stereo in doubt) [Compound 132, rel-(2R,3S,4S,5R)-4-[[3-(3,4-difluoro-2-methyl-phenyl)-4,5-dimethyl-5-(trifluoromethyl)tetrahydrofuran-2-carbonyl]amino]pyridine-2-carboxamide]",IC50,[2],< 10 nM
"Cc1c([C@@H]2[C@@H](C)[C@@](C)(C(F)(F)F)O[C@H]2C(=O)Nc2ccnc(C(N)=O)c2)ccc(F)c1F (stereo in doubt) [Compound 133, rel-(2R,3S,4R,5S)-4-[[3-(3,4-difluoro-2-methyl-phenyl)-4,5-dimethyl-5-(trifluoromethyl)tetrahydrofuran-2-carbonyl]amino]pyridine-2-carboxamide]",IC50,[2],10 to 100 nM
"Cc1c([C@@H]2[C@@H](C(=O)Nc3ccnc(C(N)=O)c3)O[C@@](C)(C(F)(F)F)[C@H]2C)ccc(F)c1F (stereo in doubt) [Compound 134, rel-(2S,3R,4S,5R)-4-[[3-(3,4-difluoro-2-methyl-phenyl)-4,5-dimethyl-5-(trifluoromethyl)tetrahydrofuran-2-carbonyl]amino]pyridine-2-carboxamide]",IC50,[2],100 to 1000 nM
"COc1nc(C(F)(F)F)ccc1[C@@H]1[C@@H](C(=O)Nc2ccnc(C(N)=O)c2)O[C@](C)(C(F)(F)F)[C@@H]1C (stereo in doubt) [Compound 137, rel-(2S,3R,4R,5S)-4-[[3-[2-methoxy-6-(trifluoromethyl)-3-pyridyl]-4,5-dimethyl-5-(trifluoromethyl)tetrahydrofuran-2-carbonyl]amino]pyridine-2-carboxamide]",IC50,[1],> 1000 nM
"COc1nc(C(F)(F)F)ccc1[C@H]1[C@H](C(=O)Nc2ccnc(C(N)=O)c2)O[C@@](C)(C(F)(F)F)[C@H]1C (stereo in doubt) [Compound 138, rel-(2R,3S,4S,5R)-4-[[3-[2-methoxy-6-(trifluoromethyl)-3-pyridyl]-4,5-dimethyl-5-(trifluoromethyl)tetrahydrofuran-2-carbonyl]amino]pyridine-2-carboxamide]",IC50,[1],10 to 100 nM
"COc1nc(C(F)F)ccc1[C@H]1[C@H](C(=O)Nc2ccnc(C(N)=O)c2)O[C@@](C)(C(F)(F)F)[C@H]1C (stereo in doubt) [Compound 140, rel-(2R,3S,4S,5R)-4-[[3-[6-(difluoromethyl)-2-methoxy-3-pyridyl]-4,5-dimethyl-5-(trifluoromethyl)tetrahydrofuran-2-carbonyl]amino]pyridine-2-carboxamide]",IC50,[2],10 to 100 nM
"COc1nc(C(F)F)ccc1[C@@H]1[C@@H](C(=O)Nc2ccnc(C(N)=O)c2)O[C@](C)(C(F)(F)F)[C@@H]1C (stereo in doubt) [Compound 141, rel-(2S,3R,4R,5S)-4-[[3-[6-(difluoromethyl)-2-methoxy-3-pyridyl]-4,5-dimethyl-5-(trifluoromethyl)tetrahydrofuran-2-carbonyl]amino]pyridine-2-carboxamide]",IC50,[2],> 1000 nM
"Cc1cnc(C(N)=O)cc1NC(=O)[C@@H]1O[C@@](C)(C(F)(F)F)[C@@H](C)[C@H]1c1ccc(F)c(F)c1OC(F)F (stereo in doubt) [Compound 150, rel-(2R,3S,4S,5R)-4-[[3-[2-(difluoromethoxy)-3,4-difluoro-phenyl]-4,5-dimethyl-5-(trifluoromethyl)tetrahydrofuran-2-carbonyl]amino]-5-methyl-pyridine-2-carboxamide]",IC50,[1],> 1000 nM
"Cc1cnc(C(N)=O)cc1NC(=O)[C@H]1O[C@](C)(C(F)(F)F)[C@H](C)[C@@H]1c1ccc(F)c(F)c1OC(F)F (stereo in doubt) [Compound 151, rel-(2S,3R,4R,5S)-4-[[3-[2-(difluoromethoxy)-3,4-difluoro-phenyl]-4,5-dimethyl-5-(trifluoromethyl)tetrahydrofuran-2-carbonyl]amino]-5-methyl-pyridine-2-carboxamide]",IC50,[1],10 to 100 nM
Cc1c(F)ccc([C@@H]2[C@@H](C(=O)Nc3ccnc(C(N)=O)c3)O[C@](C)(C(F)(F)F)[C@@H]2C)c1OC(F)F (stereo in doubt) [compound 53],IC50,[1],< 10 nM
"COc1c([C@@H]2[C@@H](C(=O)Nc3ccnc(C(N)=O)c3)O[C@](C)(C(F)(F)F)[C@@H]2C)ccc(F)c1F [Compound 6, (2S,3R,4R,5S)-4-[[3-(3,4-difluoro-2-methoxy-phenyl)-4,5-dimethyl-5-(trifluoromethyl)tetrahydrofuran-2-carbonyl]amino]pyridine-2-carboxamide]",IC50,[3],> 1000 nM
"COc1c([C@H]2[C@H](C(=O)Nc3ccnc(C(N)=O)c3)O[C@@](C)(C(F)(F)F)[C@H]2C)ccc(F)c1F [Compound 7, (2R,3S,4S,5R)-4-[[3-(3,4-difluoro-2-methoxy-phenyl)-4,5-dimethyl-5-(trifluoromethyl)tetrahydrofuran-2-carbonyl]amino]pyridine-2-carboxamide]",IC50,[3],< 10 nM
"CCOc1c([C@@H]2[C@@H](C(=O)Nc3ccnc(C(N)=O)c3)O[C@](C)(C(F)(F)F)[C@@H]2C)ccc(F)c1F [Compound 8, (2S,3R,4R,5S)-4-[[3-(2-ethoxy-3,4-difluoro-phenyl)-4,5-dimethyl-5-(trifluoromethyl)tetrahydrofuran-2-carbonyl]amino]pyridine-2-carboxamide]",IC50,[1],> 1000 nM

# Source: patent US11919887B2, “Substituted tetrahydrofurans as modulators of sodium channels” (Vertex Pharmaceuticals Incorporated, priority 2019, dated 2024)
